Laboratory results published in paper PMC8230565, “Bisavenathramide Analogues as Nrf2 Inductors and Neuroprotectors in In Vitro Models of Oxidative Stress and Hyperphosphorylation” (Antioxidants, 2021).
“Also recorded” adds a separate entry of the source.

Columns and labels:
[1] = DPPH radical scavenging assay; conditions: for DPPH Scavenging at 0.1 mM, %: 0.1 mM compound; for IC50: n in brackets; for DPPH Scavenging at 1 mM, %: 1 mM compound
Protocol: The direct antioxidant effects of compounds 3 were investigated by studying their radical-scavenging effect on the 2,2-diphenyl-1-picrylhydrazyl free radical (DPPH^•). Thus, a 100 μL volume of a methanol solution of each compound was added to 200 μL of 100 μM methanolic DPPH^•, and the solution was kept in the dark at 37 °C for 30 min in a 96-well microliter plate. After this incubation, the absorption at 490 nm of each solution was measured with a microplate reader in order to quantitate its decrease. A blank reading was also taken to calculate the amount of remaining DPPH^•. The radical-scavenging activity exerted by compounds 3 was determined by comparison with a 10 μL of MeOH-treated blank group. Ascorbic acid, a well-known antioxidant acting as a radical scavenger, was used as reference. All samples were analyzed in triplicate. Percent inhibition of the DPPH^• radical was calculated using the equation shown below, where AbsCtrl is the absorbance of the blank group and Abss is the absorbance of the samples containing compounds 3. For each compound showing a percentage of inhibition above 60%, the IC50 value was determined using a dose–response curve obtained from measurements corresponding to at least six concentrations. %Scavenger=AbsCtrl−AbsS/AbsCtrl×100
The radical scavenging activity of all compounds was first studied by the DPPH assay, which measures the ability of antioxidant compounds to donate a hydrogen atom to the violet 2,2-diphenyl-1-picrylhydrazyl radical and transform it into a nonradical species. Thus, it is generally considered to belong to the hydrogen atom transfer (HAT) category of methods for measurement of antioxidant activity.

[2] = Ferric reducing antioxidant power (FRAP) assay; set-up: key to FRAP TEAC: trolox equivalents (TEAC), relative to trolox; conditions: for FRAP nmol Fe2+ at 30 µM: 30 µM compound, n in brackets; for FRAP TEAC: 30 µM, relative to trolox
Protocol: A ferric reducing antioxidant power (FRAP) kit assay purchased from Sigma-Aldrich (Madrid, Spain) was employed for the experiments. The antioxidant solutions, FRAP assay buffer solution, FeCl3 solution, and FRAP probe solution were kept in ice during the preparation of the plate. A calibration standard curve was prepared by using the 2 mM ferrous standard solution provided in the FRAP kit assay. Appropriate aliquots of this solution were taken and diluted up to a 200 μL final volume with FRAP buffer. The final ferrous concentrations measured in the well were: 0, 20, 40, 60, 80, and 100 μM. Each concentration value was prepared and measured by triplicate. Stock solutions of compounds 3, as well as reference compounds trolox and ferulic acid, were freshly prepared in 95% ethanol at […]. Aliquots of 10 μL of compounds 3 and the reference compounds were mixed with 19 μL FeCl3 solution and 19 μL FRAP probe solution, and then completed to a final volume of 200 μL with FRAP assay buffer solution. The final concentration of antioxidants and references was 30 μM. Compounds 3, reference compounds, as well as the corresponding blank solutions (one for each compound to be assayed, avoiding the chromogenic FRAP probe), and positive control were thoroughly mixed in vortex for 1–2 min with the reaction chromogenic media, and then were incubated under darkness at 37 °C in the dry bath, and using the device for support well-plates. Each compound to be assayed and the reference antioxidant compounds were prepared and measured by triplicate. The absorbance values were measured at 594 nm after 5 min of reaction and, to assure complete reaction, the absorbance values after 60 min of incubation at 37 °C in the dry bath were also measured. The absorbance values of the sample antioxidant compounds were corrected by subtracting the corresponding absorbance values of the blanks, and then they were introduced in the calibration curve and the ferrous equivalents were determined. The reference antioxidants employed for this assay were trolox and ferulic acid, which were obtained from Sigma-Aldrich (Madrid, Spain). Ultrapure water was obtained from a Milli-Q Direct 8 system (Millipore, Molsheim, France).
In order to achieve a broader insight into the antioxidant profile of our compounds, we also examined them using a single electron transfer (SET)-based method, namely the ferric reducing antioxidant power (FRAP) assay, which measures the ability of an antioxidant to reduce the ferric ion in the TPTZ (2,4,6-tri(2-pyridyl)-1,3,5-triazine)-Fe(III) complex.

[3] = system: SH-SY5Y cells; test: Neuroprotection against okadaic acid in SH-SY5Y cells (MTT); assay type: cell-based; conditions: for % neuroprotection against okadaic acid at 1 µM: Homo sapiens, SH-SY5Y, 18 h, 1 µM compound, okadaic acid 20 nM, read-out: % Neuroprotection ± SEM at 1 µM (okadaic acid)
Protocol: Neuroprotection studies against tau hyperphosphorylation exerted by okadaic acid (OA) were evaluated using the SH-SY5Y cell line as follows. […] After 18 h, cell viability was addressed by the MTT reduction method. MTT (5 mg/mL, 10 μL/well) was added and incubated for 2 h. Then, the medium was removed and the purple formazan crystals formed by viable cells were dissolved using 100 μL of DMSO. A FluoStar Optima spectrophotometer (BMG Labtech, Ortenberg, Baden-Württemberg, Germany) was used to measure the absorbance at 570 nm.
Okadaic acid is a potent inhibitor of protein phosphatase 2A (PP2A), thereby inducing tau hyperphosphorylation. For this reason, it can be employed as a model of neurodegenerative-disease-connected tau hyperphosphorylation, a well-known feature of Alzheimer’s disease, but present also in other NDDs, collectively known as tauopathies and characterized by the pathological aggregation of hyperphosphorylated tau in neurofibrillary tangles. […] Tau hyperphosphorylation is connected to oxidative stress, which activates p38 and deactivates calcineurin, a phosphatase involved in tau dephosphorylation by increasing RCAN1, its natural repressor [34, 35]. Indeed, hyperphosphorylation and oxidative stress have been proposed to generate a vicious circle that is critical to the advance of neurodegenerative tauopathies.

[4] = system: SH-SY5Y cells; test: Neuroprotection against rotenone/oligomycin A in SH-SY5Y cells (MTT); assay type: cell-based; conditions: Homo sapiens, 24 h, 1 µM compound, rotenone 30 µM + oligomycin A 10 µM, read-out: % Neuroprotection ± SEM at 1 µM (rotenone/oligomycin A)
Protocol: To evaluate the compounds for their neuroprotective effect in an oxidative stress model, we selected the rotenone (30 μM) and oligomycin A (10 μM) (R/O) cocktail, which disturbs the flow of electrons in the mitochondrial respiratory chain. Similarly, SH-SY5Y cells were preincubated with compounds 3 at 1 μM for 24 h. Then, they were co-incubated in the presence of R/O for a further 24 h, evaluating cell viability by the MTT reduction method.
Thus, the R/O combination constitutes a good model of oxidative stress and neurodegeneration with a mitochondrial origin, and has been broadly employed to evaluate potential hit compounds for the treatment of neurodegenerative diseases. Furthermore, treatment of laboratory animals with rotenone is known to induce many features associated to Parkinson’s disease, such as selective nigrostriatal dopaminergic degeneration and the appearance of α-synuclein cytoplasmic inclusions, which are associated with oxidative damage.

SMILES | radical scavenging activity in the DPPH assay [1] | DPPH Scavenging at 0.1 mM, % [1] [%] | IC50 [1] [µM] | antioxidant activity in FRAP compared with references [2] | FRAP nmol Fe2+ at 30 µM [2] | FRAP TEAC [2] | neuroprotective effect against okadaic acid by concentration ([3]; 0.01, 0.1, 1, 10 and 30 µM, OA 20 nM) | % neuroprotection against okadaic acid at 1 µM [3] [%] | % neuroprotection against rotenone/oligomycin A toxicity at 1 µM [4] [%] | DPPH Scavenging at 1 mM, % [1] [%]
COC(=O)C1=C(C)N(CCc2ccccc2)C(=O)/C1=C\c1ccc(O)c(O)c1 [Compound 3i, Methyl (Z)-4-(3,4-Dihydroxybenzylidene)-2-methyl-5-oxo-1-phenethyl-4,5-dihydro-1H-pyrrole-3-carboxylate] | high radical scavenging activity | 90.9 ± 0.5 | 7.5 ± 0.4 | more active than ferulic acid and slightly more active than trolox | 2.30 ± 0.08 (3) nmol Fe^2+ | 1.01 | concentration-dependent neuroprotective effect being statistically significant at 1 and 10 µM; also recorded: neuroprotection was lost at 30 µM | 60.9 ± 23.3 | > 90 | 
COC(=O)C1=C(C)N(CCc2ccc(OC)c(OC)c2)C(=O)/C1=C\c1ccc(OCc2ccc(Cl)cc2)c(OC)c1 [Compound 3m, Methyl (Z)-4-[4-((4-Chlorobenzyl)oxy)-3-methoxybenzylidene]-1-(3,4-dimethoxyphenethyl)-2-methyl-5-oxo-4,5-dihydro-1H-pyrrole-3-carboxylate] |  | 22.8 ± 0.2 | 334 ± 22.9 |  | 1.59 ± 0.05 (3) nmol Fe^2+ | 0.70 |  | 40.7 ± 9.85 | 41.2 ± 18.9 | 85.5 ± 2.7
COC(=O)C1=C(C)N(CCc2ccccc2)C(=O)/C1=C\c1c[nH]c2ccccc12 [Compound 3o, Methyl (Z)-4-((1H-Indol-3-yl)methylene)-2-methyl-5-oxo-1-phenethyl-4,5-dihydro-1H-pyrrole-3-carboxylate] |  | 12.7 ± 1.9 |  |  | 1.80 ± 0.07 (3) nmol Fe^2+ | 0.79 |  | 46.3 ± 13.6 | > 90 | 49.9 ± 3.4
COC(=O)C1=C(C)N(CCc2ccccc2)C(=O)/C1=C\c1cc(OC)c(OC)c(OC)c1 [Compound 3g, Methyl (Z)-2-Methyl-5-oxo-1-phenethyl-4-(3,4,5-trimethoxybenzylidene)-4,5-dihydro-1H-pyrrole-3-carboxylate] |  | 8.1 ± 4.7 |  |  | 1.36 ± 0.10 (3) nmol Fe^2+ | 0.60 |  | 65.7 ± 29.1 | 74.5 ± 7.19 | 46.5 ± 2.3
COC(=O)C1=C(C)N(CCc2ccccc2)C(=O)/C1=C\c1ccc(OCc2ccc(Cl)cc2)c(OC)c1 [Compound 3l, Methyl (Z)-4-[4-((4-Chlorobenzyl)oxy)-3-methoxybenzylidene]-2-methyl-5-oxo-1-phenethyl-4,5-dihydro-1H-pyrrole-3-carboxylate] |  | 11.3 ± 2.6 | 712.2 ± 5.4 |  | 1.62 ± 0.03 (3) nmol Fe^2+ | 0.71 |  | 51.1 ± 18.4 | 79.8 ± 8.28 | 63.5 ± 2.2
